# Assay results taken from US8901119B2, “Peptide deformylase inhibitors” (GlaxoSmithKline Intellectual Property (No. 2) Limited, priority 2011, dated 2014).
# Assays:
# [1] = tested on: Enterococcus faecalis X7501; assay: Antimicrobial activity assay (broth microdilution MIC); assay type: cell-based; details: read-out: MIC, E. faecalis X7501
# Method: (§1) Whole-cell antimicrobial activity was determined by broth microdilution using the Clinical and Laboratory Standards Institute (CLSI, formerly NCCLS) recommended methodology (NCCLS Document M7-A7, “Methods for Dilution Antimicrobial Susceptibility Tests for Bacteria that Grow Aerobically; Approved Standard—Seventh Edition”, 2006). Compounds were tested in serial two-fold dilutions ranging from 64 to 0.06 μg/mL against a panel of at least 11 strains. This panel consisted of the following laboratory strains: Staphylococcus aureus Oxford, Staphylococcus aureus WCUH29, Enterococcus faecalis I, Enterococcus faecalis 7 or Enterococcus faecalis X7501, Haemophilus influenzae Q1, Haemophilus influenzae NEMC1 or Haemophilus influenzae H128, Moraxella catarrhalis 1502, Streptococcus pneumoniae 1629, Streptococcus pneumoniae N1387, Streptococcus pneumoniae Ery2 and Escherichia coli 7623 or Escherichia coli 3. All compounds were also tested against Haemophilus influenzae H128 or Escherichia coli 7623 efflux minus mutants (strains in which the AcrA efflux pump had been deleted) to ascertain the extent in which the molecules were effluxed out of the bacteria. In addition, the antibacterial activity of some compounds against Streptococcus pyogenes 1307006P and Streptococcus pyogenes 1308007P was also analyzed. The minimum inhibitory concentration (MIC) was determined as the lowest concentration of compound that inhibited visible growth. A mirror reader was used to assist in determining the MIC endpoint.
# [2] = tested on: Streptococcus pyogenes 1308007P; assay: as above; assay type: cell-based; details: read-out: MIC, S. pyogenes 1308007P
# Method: as §1
# [3] = tested on: Streptococcus pneumoniae Ery2; assay: as above; assay type: cell-based; details: ERY2, read-out: MIC, S. pneumoniae ERY2
# Method: as §1
# [4] = tested on: Streptococcus pneumoniae N1387; assay: as above; assay type: cell-based; details: read-out: MIC, S. pneumoniae N1387
# Method: as §1
# [5] = tested on: Streptococcus pneumoniae 1629; assay: as above; assay type: cell-based; details: read-out: MIC, S. pneumoniae 1629
# Method: as §1
# [6] = tested on: Haemophilus influenzae H128; assay: as above; assay type: cell-based; details: read-out: MIC, H. influenzae H128
# Method: as §1
# [7] = tested on: Haemophilus influenzae Q1; assay: as above; assay type: cell-based; details: Q1, broth microdilution, read-out: MIC, H. influenzae Q1
# Method: as §1
# Escherichia coli 3 = assay: as above; assay type: cell-based; details: read-out: MIC, E. coli 3
# Method: as §1
# [8] = tested on: Moraxella catarrhalis 1502; assay: as above; assay type: cell-based
# Method: as §1
# Enterococcus faecalis I = assay: as above; assay type: cell-based; details: read-out: MIC, E. faecalis I
# Method: as §1
# [9] = tested on: Staphylococcus aureus Oxford; assay: as above; assay type: cell-based; details: read-out: MIC, S. aureus Oxford
# Method: as §1
# [10] = tested on: Staphylococcus aureus WCUH29; assay: as above; assay type: cell-based; details: read-out: MIC, S. aureus WCUH29
# Method: as §1
# [11] = target: Haemophilus influenzae PDF (Haemophilus influenzae, UniProt P44786); assay: PDF IC50 Assay 2 (FDH/NAD+/Diaphorase-coupled fluorescence); assay type: biochemical
# Method: (§2) Enzymatic activity of PDF was measured using a formate dehydrogenase (FDH)/NAD+/Diaphorase-coupled Fluorescence detection assay. Once formate is released from methionine by PDF, it is oxidized by FDH, thereby reducing one molecule of NAD to NADH. Diaphorase then catalyzes the conversion of Resazurin to Resarufin using the NADH produced by the FDH reaction. The fluorescence intensity of Resarufin is monitored by excitation at 525 nm and emission at 598 nm. The reaction is assembled by first adding the NAD, f-MAS and Resazurin to each well of a 384 well plate containing 50 nl of test compounds. Reactions were initiated by adding PDF in reaction buffer containing FDH and Diaphorase. The final reaction composition for the Staphylococcus aureus PDF (SaPDF) assay was 50 mM potassium phosphate, 0.025% CHAPS pH 7.6, 0.25 units/mL FDH, 0.156 μm! Diaphorase; 0.025 mg/ml BSA; 1 mM NAD, 0.5% DMSO, 1 mM formyl-Met-Ala-Ser; 5 uM Resazurin, and 1 nM SaPDF, in 10 μL total volume. Serial dilutions of inhibitors were performed in DMSO. Reagents and assay format were identical for the Haemophilus influenzae PDF; in the Streptococcus pneumoniae PDF assays, assay composition was the same, except that […] enzyme was used. The endpoint of each reaction was chosen to ensure that all data were collected within the linear range of catalysis. IC50s were determined by fitting to the equation: % Inhibition=100/1+(IC50/[l])^s, where s is a slope factor, l is the inhibitor concentration and the IC50 is the concentration of compound that causes 50% inhibition.
# [12] = target: T1, Streptococcus pneumoniae PDF (Streptococcus pneumoniae serotype 4, UniProt Q9F2F0); assay: as above; assay type: biochemical; details: Assay 2 conditions; read-out: IC50, S. pneumoniae PDF activity
# T1 sequence (Q9F2F0 1-203): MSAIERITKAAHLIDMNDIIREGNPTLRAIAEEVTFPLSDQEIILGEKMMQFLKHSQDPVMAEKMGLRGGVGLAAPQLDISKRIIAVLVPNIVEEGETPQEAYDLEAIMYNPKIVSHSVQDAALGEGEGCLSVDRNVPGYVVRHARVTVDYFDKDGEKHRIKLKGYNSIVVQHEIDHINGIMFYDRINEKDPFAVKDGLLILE
# Method: as §2
# [13] = target: T2, Staphylococcus aureus PDF (SaPDF) (Staphylococcus aureus, UniProt P68826); assay: as above; assay type: biochemical; details: Assay 2 conditions; read-out: IC50, S. aureus PDF activity
# T2 sequence (P68826 1-183): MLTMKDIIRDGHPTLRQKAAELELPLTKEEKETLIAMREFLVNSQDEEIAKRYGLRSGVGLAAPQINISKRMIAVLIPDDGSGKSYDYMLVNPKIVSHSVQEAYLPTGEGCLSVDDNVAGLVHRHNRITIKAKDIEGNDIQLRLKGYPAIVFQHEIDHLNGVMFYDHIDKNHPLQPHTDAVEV
# Method: as §2
# Haemophilus influenzae PDF, sequence (P44786 whole entry): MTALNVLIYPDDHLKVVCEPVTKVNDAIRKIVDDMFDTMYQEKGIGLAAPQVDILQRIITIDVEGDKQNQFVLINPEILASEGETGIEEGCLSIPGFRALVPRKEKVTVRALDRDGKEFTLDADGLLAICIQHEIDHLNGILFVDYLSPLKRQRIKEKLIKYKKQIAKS
Structure (SMILES),MIC [1],MIC [2],MIC [3],MIC [4],MIC [5],MIC [6],MIC [7],MIC (Escherichia coli 3),MIC [8],MIC (Enterococcus faecalis I),MIC [9],MIC [10],IC50 [11],IC50 [12],IC50 [13]
"O=CN(O)C[C@@H](CC1CCCC1)C(=O)N1NCC[C@H]1C(=O)Nc1cccc[n+]1[O-] [Example 45, (3S)-2-((2R)-3-Cyclopentyl-2-{[formyl(hydroxy)amino]methyl}propanoyl)-N-(1-oxido-2-pyridinyl)-3-pyrazolidinecarboxamide]",8 µg/mL,4 µg/mL,0.25 µg/mL,0.25 µg/mL,0.5 µg/mL,1 µg/mL,0.5 µg/mL,32 µg/mL,≤ 0.06 µg/mL,2 µg/mL,1 µg/mL,0.25 µg/mL,,,
"O=CN(O)C[C@@H](CC1CCCC1)C(=O)N1N=CC[C@H]1C(=O)Nc1ccncn1 [Example 92, (5S)-1-((2R)-3-Cyclopentyl-2-{[formyl(hydroxy)amino]methyl}propanoyl)-N-4-pyrimidinyl-4,5-dihydro-1H-pyrazole-5-carboxamide]",1 µg/mL,0.5 µg/mL,0.25 µg/mL,0.125 µg/mL,0.5 µg/mL,0.5 µg/mL,0.5 µg/mL,16 µg/mL,≤ 0.06 µg/mL,1 µg/mL,0.25 µg/mL,0.125 µg/mL,,,
"CN(C)Cc1nccc(NC(=O)[C@@H]2CCNN2C(=O)[C@H](CC2CCCC2)CN(O)C=O)n1 [Example 91, (3S)-2-((2R)-3-Cyclopentyl-2-{[formyl(hydroxy)amino]methyl}propanoyl)-N-{2-[(dimethylamino)methyl]-4-pyrimidinyl}-3-pyrazolidinecarboxamide]",16 µg/mL,1 µg/mL,1 µg/mL,0.5 µg/mL,2 µg/mL,0.5 µg/mL,0.5 µg/mL,4 µg/mL,≤ 0.06 µg/mL,16 µg/mL,4 µg/mL,1 µg/mL,,,
"O=CN(O)C[C@@H](CC1CCCC1)C(=O)N1NCC[C@H]1C(=O)Nc1ccc(O)cc1 [Example 123, (3S)-2-((2R)-3-Cyclopentyl-2-{[formyl(hydroxy)amino]methyl}propanoyl)-N-(4-hydroxyphenyl)-3-pyrazolidinecarboxamide]",,,,,,,,,,,,,≤ 1000 nM,≤ 1000 nM,≤ 1000 nM
